Experimental data as given in PubChem BioAssay (NCI).
Several values for one entry are separate records, joined by “and”; a condition that tells them apart may be missing. Identical values can stand only once.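 The compound was tested at five concentrations on cells cultured in 96-well plates, with a 48-hour exposure period. GI50 marks 50% less growth. TGI: concentration producing complete growth inhibition.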

Tests used:
Experiment in all cases: NCI-60 cell line screen, 48 h
786-0 renal = system: 786-0 renal
DU-145 prostate = system: DU-145 prostate
HOP-62 NSCLC = system: HOP-62 NSCLC
HS 578T breast = system: HS 578T breast
MALME-3M melanoma = system: MALME-3M melanoma
MDA-MB-231 breast = system: MDA-MB-231 breast
OVCAR-3 ovarian = system: OVCAR-3 ovarian
OVCAR-4 ovarian = system: OVCAR-4 ovarian
T-47D breast = system: T-47D breast
UO-31 renal = system: UO-31 renal

| Structure (SMILES) | GI50 (786-0 renal) | TGI (786-0 renal) | GI50 (DU-145 prostate) | TGI (DU-145 prostate) | GI50 (HOP-62 NSCLC) | TGI (HOP-62 NSCLC) | GI50 (HS 578T breast) | TGI (HS 578T breast) | GI50 (MALME-3M melanoma) | TGI (MALME-3M melanoma) | GI50 (MDA-MB-231 breast) | TGI (MDA-MB-231 breast) | GI50 (OVCAR-3 ovarian) [µM] | TGI (OVCAR-3 ovarian) [µM] | GI50 (OVCAR-4 ovarian) | TGI (OVCAR-4 ovarian) | GI50 (T-47D breast) | TGI (T-47D breast) | GI50 (UO-31 renal) | TGI (UO-31 renal) |
| --- | --- | --- | --- | --- | --- | --- | --- | --- | --- | --- | --- | --- | --- | --- | --- | --- | --- | --- | --- | --- |
| CN1CCN(CCCn2c3c(sc4ncccc43)c(=O)n3nnc(-c4ccccc4)c23)CC1 | 5.81 µM | 10.7 µM | 1.67 µM | 3.24 µM | 1.63 µM | 3.4 µM | 4.82 µM | 12.3 µM | 6.38 µM | 11.8 µM | 1.59 µM | 3.04 µM | 1.81 | 3.42 | 1.87 µM | 3.73 µM | 20.2 µM | 39.4 µM | 0.802 µM | 2.42 µM |
| CC(C)Cc1cc(-c2cccn2C)c(C#N)c(=O)[nH]1 | > 100 µM | > 100 µM | > 100 µM | > 100 µM | > 100 µM | > 100 µM | > 100 µM | > 100 µM | > 100 µM | > 100 µM | > 100 µM | > 100 µM | > 100 | > 100 | 69.4 µM | > 100 µM | > 100 µM | > 100 µM | > 100 µM | > 100 µM |
| O=C(Nc1ccc(-c2cn3ccccc3n2)cc1)c1cc(Br)ccc1O |  | > 100 µM |  | > 100 µM |  | > 100 µM |  | > 100 µM |  | > 100 µM |  | > 100 µM |  | > 100 |  | > 100 µM |  | > 100 µM |  |  |
| OCC1OC(n2cnc3cc(Cl)c(Cl)cc32)C(O)C1O (configuration not stated) | 23.6 µM | > 68.3 µM | 17.2 µM | > 61.2 µM | 9.13 µM | 35.4 µM | 27 µM | > 96.3 µM | 25.5 µM | 67.5 µM | 21.2 µM | 60.1 µM | 22.7 | 72.3 | 62.8 µM | > 100 µM | 26.1 µM | > 71.9 µM | 15.8 µM | 40 µM |
| Nc1[nH]c(=S)[nH]c(=O)c1N=Nc1c(Br)cc(S(N)(=O)=O)cc1Br |  | > 100 µM |  | > 100 µM |  | > 100 µM |  | > 100 µM |  | > 100 µM |  | > 100 µM |  | > 100 |  | > 100 µM |  | > 100 µM |  | > 100 µM |
| COc1cccc(/C=C/C(=O)c2cc3c(N)c(C(=O)Nc4ccccc4)sc3nc2C)c1 | 0.802 µM | 1.72 µM | 1.39 µM | 4.37 µM | 1.09 µM | 2.44 µM | 1.92 µM | > 50 µM | 2.03 µM | 15 µM | 1.79 µM | 11.7 µM | 1.18 | 3.32 | 1.78 µM | > 50 µM | 1.24 µM | 3.89 µM | 0.842 µM | 1.62 µM |
| C=C1[C@H](O)C[C@@H](C(C)C(O)CC=C(C)C)[C@@H](O)[C@@H]2C(C)=CC[C@@H]12 (some centres not stated) | > 100 µM | > 100 µM | > 100 µM | > 100 µM | > 100 µM | > 100 µM | > 100 µM | > 100 µM | > 100 µM | > 100 µM | > 100 µM | > 100 µM |  |  | > 100 µM | > 100 µM | > 100 µM | > 100 µM | > 100 µM | > 100 µM |
| C[C@H]1O[C@@H](O[C@H]2[C@@H](O)C[C@H](O[C@H]3[C@@H](O)C[C@H](O[C@H]4CC[C@]5(C)C6CC[C@]7(C)[C@@H](C8=CC(=O)OC8)CC[C@]7(O)C6CC[C@@H]5C4)O[C@@H]3C)O[C@@H]2C)C[C@H](O)[C@@H]1O (some centres not stated) | 0.0172 µM | 0.0596 µM | 0.0113 µM | 0.0249 µM | 0.0118 µM | 0.0295 µM | 0.013 µM | 1.57 µM | 0.019 µM | 0.0783 µM | 0.0621 µM | 0.353 µM |  | 0.043 |  | 0.0732 µM | 0.0172 µM | 0.0608 µM | 0.0181 µM | 0.0722 µM |
| COc1ccc2c(c1)C(=O)CC(C(N)=O)C2 (configuration not stated) |  | > 100 µM |  | > 100 µM |  | > 100 µM |  | > 100 µM |  | > 100 µM |  | > 100 µM |  | > 100 |  | > 100 µM |  | > 100 µM |  | > 100 µM |
| Nc1nc(N)c2c(n1)NC(c1ccc(Cl)cc1)C1CCc3ccccc3C1=N2 (configuration not stated) | 11.8 µM | 24.1 µM | 11.2 µM | 23.3 µM | 11.5 µM | 23.7 µM | 15 µM | 50.3 µM | 8.48 µM | 22.8 µM | 9.73 µM | 21.8 µM | 6.46 | 19 | 6.45 µM | 21 µM | 4.09 µM | 17.8 µM | 3.63 µM | 17.4 µM |
| Cc1c(-c2c(F)cc(C(N)=O)c3[nH]c4c(c23)CC[C@H](C(C)(C)O)C4)cccc1-n1c(=O)c2cccc(F)c2n(C)c1=O | 3.54 µM | > 100 µM | 5.63 µM | > 100 µM | 3.39 µM | > 100 µM | 4.62 µM | > 100 µM | 1.84 µM | 28.2 µM | 4.34 µM | > 100 µM | 3.95 | > 100 | 6.31 µM | > 100 µM | 3.39 µM | > 100 µM | 1.01 µM | 5.59 µM |
| O=C(O)[C@@H](Cc1ccccc1)NS(=O)(=O)c1ccc(-c2ccccc2)cc1 | > 100 µM | > 100 µM | > 100 µM | > 100 µM | > 100 µM | > 100 µM | > 100 µM | > 100 µM | > 100 µM | > 100 µM | > 100 µM | > 100 µM | > 100 | > 100 | > 100 µM | > 100 µM | > 100 µM | > 100 µM | 24.9 µM | 59.4 µM |
| CNC(=O)c1cc(Oc2ccc(NC(=O)Nc3ccc(Cl)c(C(F)(F)F)c3)cc2)ccn1 | 4.04 µM and 3 µM and 3.42 µM | > 10 µM and 9.4 µM and 13.2 µM | 4.55 µM and 3.04 µM and 3.11 µM | > 10 µM and 9.33 µM and 10.7 µM | 2.78 µM and 2.59 µM and 2.01 µM | > 10 µM and 7.97 µM and 4.81 µM | 2.96 µM and 2.33 µM and 2.59 µM | > 10 µM and 8.47 µM and 16.4 µM | 2.9 µM and 2.08 µM and 2.15 µM | > 10 µM and 6.71 µM and 11 µM | 1.74 µM and 1.62 µM and 1.33 µM | 4.4 µM and 4.42 µM and 4.14 µM |  |  | 3.07 µM and 3.67 µM and 3.42 µM | > 10 µM and 11.5 µM and 22.2 µM | 1.82 µM and 2.31 µM and 1.87 µM | > 10 µM and 7.43 µM and 7.85 µM | 3.08 µM and 3.03 µM and 2.57 µM | > 10 µM and 8.18 µM and 6.2 µM |
| COc1cc(OC)c(OC)cc1/C=C/c1ccc2ccccc2n1 |  | > 10 µM |  | > 10 µM |  | > 10 µM |  | > 10 µM |  | > 10 µM |  | > 10 µM |  | > 10 |  | > 10 µM |  | > 10 µM |  |  |
